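48-hour exposure; five concentrations; linearly interpolated endpoints. Here, GI50 denotes the concentration required for 50% inhibition of growth.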 Calls of active or inactive are those of the source. Cut-off read from the data, not from the text of the source: active = GI50 up to about 1.1 µM and inactive = higher.
Columns and labels:
Experiment in all cases: NCI anticancer screen, dose series, 48 h
[1] = test system: Hs-578T
[2] = test system: TK-10
[3] = test system: MDA-MB-231
[4] = test system: SK-MEL-2
[5] = test system: SNB-75
[6] = test system: CCRF-CEM
[7] = test system: HOP-62
[8] = test system: BT-549
[9] = test system: HT-29
[10] = test system: ACHN
[11] = test system: U-251
[12] = test system: DU-145
[13] = test system: MDA-MB-435
[14] = test system: HCT-116
[15] = test system: SK-OV-3
[16] = test system: SK-MEL-5
[17] = test system: KM12
[18] = test system: SK-MEL-28
[19] = test system: SF-295
[20] = test system: RXF 393
[21] = test system: NCI-H226
[22] = test system: NCI/ADR-RES
[23] = test system: K562
[24] = test system: NCI-H460
[25] = test system: CAKI-1
[26] = test system: OVCAR-8
[27] = test system: OVCAR-4
[28] = test system: HCT-15
[29] = test system: NCI-H522
[30] = test system: OVCAR-5
[31] = test system: A498
[32] = test system: SW-620
[33] = test system: UO-31
[34] = test system: RPMI-8226
[35] = test system: MDA-N
[36] = test system: PC-3
[37] = test system: HCC 2998
[38] = test system: UACC-62
[39] = test system: EKVX
[40] = test system: IGROV-1
[41] = test system: T47D
[42] = test system: NCI-H23
[43] = test system: COLO 205
[44] = test system: SR
[45] = test system: M14
[46] = test system: SNB-19
[47] = test system: SN12C
[48] = test system: HOP-92
[49] = test system: A549
[50] = test system: MOLT-4
[51] = test system: Malme-3M
[52] = test system: SF-268
[53] = test system: 786-0
[54] = test system: HL-60
[55] = test system: LOX IMVI
[56] = test system: MCF7
[57] = test system: UACC-257

COc1ccc([C@]23CCN4COC[C@@H]([C@H]42)C2(CC3)OCC(C)(C)CO2)cc1OC
GI50 [1]: > 100 µM (inactive)
GI50 [2]: > 100 µM (inactive)
GI50 [3]: > 100 µM (inactive)
GI50 [4]: > 100 µM (inactive)
GI50 [5]: 53.3 µM (inactive)
GI50 [6]: > 100 µM (inactive)
GI50 [7]: > 100 µM (inactive)
GI50 [8]: > 100 µM (inactive)
GI50 [9]: 89.7 µM (inactive)
GI50 [10]: > 100 µM (inactive)
GI50 [11]: > 100 µM (inactive)
GI50 [12]: > 100 µM (inactive)
GI50 [13]: > 100 µM (inactive)
GI50 [14]: > 100 µM (inactive)
GI50 [15]: > 100 µM (inactive)
GI50 [16]: > 100 µM (inactive)
GI50 [17]: > 100 µM (inactive)
GI50 [18]: > 100 µM (inactive)
GI50 [19]: > 100 µM (inactive)
GI50 [20]: > 100 µM (inactive)
GI50 [21]: > 100 µM (inactive)
GI50 [22]: > 100 µM (inactive)
GI50 [23]: > 100 µM (inactive)
GI50 [24]: > 100 µM (inactive)
GI50 [25]: > 100 µM (inactive)
GI50 [26]: > 100 µM (inactive)
GI50 [27]: > 100 µM (inactive)
GI50 [28]: > 100 µM
GI50 [29]: > 100 µM (inactive)
GI50 [30]: > 100 µM (inactive)
GI50 [31]: > 100 µM (inactive)
GI50 [32]: > 100 µM (inactive)
GI50 [33]: > 100 µM (inactive)
GI50 [34]: > 100 µM (inactive)
GI50 [35]: > 100 µM (inactive)
GI50 [36]: > 100 µM (inactive)
GI50 [37]: > 100 µM (inactive)
GI50 [38]: > 100 µM (inactive)
GI50 [39]: > 100 µM (inactive)
GI50 [40]: > 100 µM (inactive)
GI50 [41]: 66.5 µM (inactive)
GI50 [42]: > 100 µM (inactive)
GI50 [43]: > 100 µM (inactive)
GI50 [44]: > 100 µM (inactive)
GI50 [45]: > 100 µM (inactive)
GI50 [46]: > 100 µM (inactive)
GI50 [47]: > 100 µM (inactive)
GI50 [48]: 31.3 µM (inactive)
GI50 [49]: > 100 µM (inactive)
GI50 [50]: > 100 µM (inactive)
GI50 [51]: > 100 µM (inactive)
GI50 [52]: > 100 µM (inactive)
GI50 [53]: > 100 µM (inactive)
GI50 [54]: > 100 µM (inactive)
GI50 [55]: > 100 µM (inactive)
GI50 [56]: > 100 µM (inactive)
GI50 [57]: > 100 µM (inactive)

Cc1nnc(-n2c(O)cc(=O)n(-c3ccccc3)c2=S)nc1/C=C/c1ccc(N(C)C)cc1
GI50 [1]: 4.99 µM (inactive)
GI50 [2]: > 39.4 µM (inactive)
GI50 [3]: > 35.6 µM (inactive)
GI50 [4]: 10.9 µM (inactive)
GI50 [5]: 4.38 µM (inactive)
GI50 [6]: 8.2 µM (inactive)
GI50 [7]: 5.86 µM (inactive)
GI50 [8]: 20.9 µM (inactive)
GI50 [9]: 5 µM (inactive)
GI50 [10]: 9.23 µM (inactive)
GI50 [11]: 10.1 µM (inactive)
GI50 [12]: 26.1 µM (inactive)
GI50 [13]: 5.62 µM (inactive)
GI50 [14]: 11.9 µM (inactive)
GI50 [15]: 11.7 µM (inactive)
GI50 [16]: 3.58 µM (inactive)
GI50 [17]: 7.05 µM (inactive)
GI50 [18]: 18.5 µM (inactive)
GI50 [19]: 12.9 µM (inactive)
GI50 [20]: 17.5 µM (inactive)
GI50 [21]: 32.3 µM (inactive)
GI50 [22]: 14.3 µM (inactive)
GI50 [23]: 5.81 µM (inactive)
GI50 [24]: 8.79 µM (inactive)
GI50 [25]: 5.7 µM (inactive)
GI50 [26]: 9.59 µM (inactive)
GI50 [27]: 11.4 µM (inactive)
GI50 [28]: 4.88 µM
GI50 [29]: 1.32 µM (inactive)
GI50 [30]: 27.4 µM (inactive)
GI50 [31]: 27.1 µM (inactive)
GI50 [32]: 12.9 µM (inactive)
GI50 [33]: 4.11 µM (inactive)
GI50 [34]: 11.2 µM (inactive)
GI50 [35]: 9.25 µM (inactive)
GI50 [36]: 8.41 µM (inactive)
GI50 [37]: 6.49 µM (inactive)
GI50 [38]: 6.53 µM (inactive)
GI50 [39]: 9.23 µM (inactive)
GI50 [40]: 5.98 µM (inactive)
GI50 [41]: 6.62 µM (inactive)
GI50 [42]: 8.36 µM (inactive)
GI50 [43]: 7.23 µM (inactive)
GI50 [44]: 5.02 µM (inactive)
GI50 [45]: 13.7 µM (inactive)
GI50 [46]: 20.4 µM (inactive)
GI50 [47]: > 43.5 µM (inactive)
GI50 [48]: 21.5 µM (inactive)
GI50 [49]: 8.63 µM (inactive)
GI50 [50]: 15.6 µM (inactive)
GI50 [51]: 2.69 µM (inactive)
GI50 [52]: 22.4 µM (inactive)
GI50 [53]: 12.3 µM (inactive)
GI50 [54]: 2.7 µM (inactive)
GI50 [55]: 4.32 µM (inactive)
GI50 [56]: 3.42 µM (inactive)
GI50 [57]: 15.5 µM (inactive)

From ChEMBL document CHEMBL1201862, “PubChem BioAssay data set” (2004)
